Measured values reported in patent US20240254118A1, “PRMT5 INHIBITORS AND USES THEREOF” (Gilead Sciences, Inc., priority 2022, published 2024).

Experiments:
[1] = test system: HCT116 MTAP-deleted cells; assay: Cell viability assay (CellTiter-Glo, 7 days), HCT116 MTAP-deleted; conditions: Homo sapiens, HCT-116, 168 h
[2] = test system: SDMA signal (PRMT5 inhibition) in HCT116 MTAP-deleted cells; assay: Symmetric di-methyl arginine image-based high content screen assay (SDMA assay), HCT116 MTAP-deleted; assay type: cell-based; conditions: SDMA assay; for EC50: Homo sapiens, HCT-116, 72 h, 3 days of treatment, cell line not given, taken as HCT116 MTAP-deleted, read-out: EC50 (SDMA assay); for EC50 selectivity (SDMA assay): taken as HCT116 WT versus MTAP-deleted
Method in brief: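 HCT116 MTAP-deleted cells treated with compound until Day 3, then formalin-fixed, permeabilized and immunostained for SDMA, with DAPI nuclear counterstain. Imaged by high-content microscopy; SDMA read-out is mean Alexa 488 intensity per DAPI-defined cell, reflecting PRMT5 inhibition.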

Row | Compound | CC50 [1] [nM] | EC50 [2] [nM] | EC50 selectivity (SDMA assay) [2]
1 | Cn1ncc2c(N)nc3ccc(C(=O)N(Cc4ccc(C(F)(F)F)cn4)N4CCc5ccccc5C4=O)cc3c21 [Example 36, 4-amino-1-methyl-N-(1-oxo-3,4-dihydroisoquinolin-2-yl)-N-[[5-(trifluoromethyl)-2-pyridyl]methyl]pyrazolo[4,3-c]quinoline-8-carboxamide] | < 100 | < 1 | 30
2 | CN(C(=O)c1ccccc1)N(Cc1ccc(C(F)(F)F)cn1)C(=O)c1ccc2nc(N)c3cnn(C)c3c2c1 [Example 37, 4-amino-N′-benzoyl-N′, 1-dimethyl-N-[[5-(trifluoromethyl)-2-pyridyl]methyl]pyrazolo[4,3-c]quinoline-8-carbohydrazide] | 100 to 1000 | 1 to 5 | 141
3 | CCOC(=O)N(C)N(Cc1ccc(C(F)(F)F)cn1)C(=O)c1ccc2nc(N)c3cnn(C)c3c2c1 [Example 38, ethyl N-[(4-amino-1-methyl-pyrazolo[4,3-c]quinoline-8-carbonyl)-[[5-(trifluoromethyl)-2-pyridyl]methyl]amino]-N-methyl-carbamate] | < 100 | < 1 | 12
4 | CC(=O)N(C)N(Cc1ccc(C(F)(F)F)cc1F)C(=O)c1ccc2nc(N)c3cnn(C)c3c2c1 [Example 39, N′-acetyl-4-amino-N-[[2-fluoro-4-(trifluoromethyl)phenyl]methyl]-N′,1-dimethyl-pyrazolo[4,3-c]quinoline-8-carbohydrazide] | < 100 | < 1 | 25
5 | CC(=O)N(C)N(Cc1ccc(C(F)(F)F)cc1F)C(=O)c1cc2c(cc1F)nc(N)c1cnn(C)c12 [Example 40, N′-acetyl-4-amino-7-fluoro-N-[[2-fluoro-4-(trifluoromethyl)phenyl]methyl]-N′,1-dimethyl-pyrazolo[4,3-c]quinoline-8-carbohydrazide] | < 100 | < 1 | 8
6 | CCC(=O)N(C)N(Cc1ccc(C(F)(F)F)cn1)C(=O)c1ccc2nc(N)c3cnn(C)c3c2c1 [Example 41, 4-amino-N′, 1-dimethyl-N′-propanoyl-N-[[5-(trifluoromethyl)-2-pyridyl]methyl]pyrazolo[4,3-c]quinoline-8-carbohydrazide] | < 100 | < 1 | 46
7 | CCC(=O)N(C)N(Cc1ccc(C(F)(F)F)cn1)C(=O)c1cc2c(cc1F)nc(N)c1cnn(C)c12 [Example 42, 4-amino-7-fluoro-N′, 1-dimethyl-N′-propanoyl-N-[[5-(trifluoromethyl)-2-pyridyl]methyl]pyrazolo[4,3-c]quinoline-8-carbohydrazide] | < 100 | < 1 | 14
8 | Cn1ncc2c(N)nc3ccc(C(=O)N(Cc4ccc(C(F)(F)F)cn4)N4CCC(C)(C)C4=O)cc3c21 [Example 43, 4-amino-N-(3,3-dimethyl-2-oxo-pyrrolidin-1-yl)-1-methyl-N-[[5-(trifluoromethyl)-2-pyridyl]methyl]pyrazolo[4,3-c]quinoline-8-carboxamide] | < 100 | 1 to 5 | 226
9 | Cn1ncc2c(N)nc3cc(F)c(C(=O)N(Cc4ccc(C(F)(F)F)cn4)N4CCC(C)(C)C4=O)cc3c21 [Example 44, 4-amino-N-(3,3-dimethyl-2-oxo-pyrrolidin-1-yl)-7-fluoro-1-methyl-N-[[5-(trifluoromethyl)-2-pyridyl]methyl]pyrazolo[4,3-c]quinoline-8-carboxamide] | < 100 | 1 to 5 | 187
10 | CCOC(=O)NN(Cc1ccc(C(F)(F)F)cn1)C(=O)c1ccc2nc(N)c3cnn(C)c3c2c1 [Example 45, ethyl N-[(4-amino-1-methyl-pyrazolo[4,3-c]quinoline-8-carbonyl)-[[5-(trifluoromethyl)-2-pyridyl]methyl]amino]carbamate] | < 100 | < 1 | 63
11 | CCOC(=O)NN(Cc1ccc(C(F)(F)F)cn1)C(=O)c1cc2c(cc1F)nc(N)c1cnn(C)c12 [Example 46, ethyl N-[(4-amino-7-fluoro-1-methyl-pyrazolo[4,3-c]quinoline-8-carbonyl)-[[5-(trifluoromethyl)-2-pyridyl]methyl]amino]carbamate] | < 100 | < 1 | 6
12 | CC(=O)N(C)N(Cc1ccc(F)cc1F)C(=O)c1ccc2nc(N)c3cnn(C)c3c2c1 [Example 47, N′-acetyl-4-amino-N-[(2,4-difluorophenyl)methyl]-N′,1-dimethyl-pyrazolo[4,3-c]quinoline-8-carbohydrazide] | < 100 | < 1 | 121
13 | CC(=O)N(C)N(Cc1ccc(F)c(F)c1F)C(=O)c1ccc2nc(N)c3cnn(C)c3c2c1 [Example 48, N′-acetyl-4-amino-N′,1-dimethyl-N-[(2,3,4-trifluorophenyl)methyl]pyrazolo[4,3-c]quinoline-8-carbohydrazide] | < 100 | 1 to 5 | 326
14 | CC(=O)N(C)N(Cc1cc(F)c(F)cc1F)C(=O)c1ccc2nc(N)c3cnn(C)c3c2c1 [Example 49, N′-acetyl-4-amino-N′,1-dimethyl-N-[(2,4,5-trifluorophenyl)methyl]pyrazolo[4,3-c]quinoline-8-carbohydrazide] | < 100 | < 1 | 163
15 | Cn1ncc2c(N)nc3ccc(C(=O)N(Cc4ccc(C(F)(F)F)cc4F)N4CCOCC4=O)cc3c21 [Example 50, 4-amino-N-[[2-fluoro-4-(trifluoromethyl)phenyl]methyl]-1-methyl-N-(3-oxomorpholin-4-yl)pyrazolo[4,3-c]quinoline-8-carboxamide] | < 100 | < 1 | 31
16 | CN(C(=O)C1(C)CC1)N(Cc1ccc(C(F)(F)F)cn1)C(=O)c1ccc2nc(N)c3cnn(C)c3c2c1 [Example 51, 4-amino-N′,1-dimethyl-N′-(1-methylcyclopropanecarbonyl)-N-[[5-(trifluoromethyl)-2-pyridyl]methyl]pyrazolo[4,3-c]quinoline-8-carbohydrazide] | < 100 | 1 to 5 | 260
17 | CN(C(=O)C1(C(F)(F)F)CC1)N(Cc1ccc(C(F)(F)F)cn1)C(=O)c1ccc2nc(N)c3cnn(C)c3c2c1 [Example 52, 4-amino-N′, 1-dimethyl-N′-[1-(trifluoromethyl)cyclopropanecarbonyl]-N-[[5-(trifluoromethyl)-2-pyridyl]methyl]pyrazolo[4,3-c]quinoline-8-carbohydrazide] | 100 to 1000 | 1 to 5 | 174
18 | Cn1ncc2c(N)nc3cc(F)c(C(=O)N(Cc4ccccn4)N4CCCC4=O)cc3c21 [Example 53, 4-amino-7-fluoro-1-methyl-N-(2-oxopyrrolidin-1-yl)-N-(pyridin-2-ylmethyl)-1H-pyrazolo[4,3-c]quinoline-8-carboxamide] | 100 to 1000 | 1 to 5 | 338
19 | Cn1ncc2c(N)nc3ccc(C(=O)N(Cc4ccccn4)N4CCCC4=O)cc3c21 [Example 54, 4-amino-1-methyl-N-(2-oxopyrrolidin-1-yl)-N-(pyridin-2-ylmethyl)-1H-pyrazolo[4,3-c]quinoline-8-carboxamide] | 100 to 1000 | > 5 | 339
20 | Cn1ncc2c(N)nc3cc(F)c(C(=O)N(Cc4ccccc4F)N4CCCC4=O)cc3c21 [Example 55, 4-amino-7-fluoro-N-(2-fluorobenzyl)-1-methyl-N-(2-oxopyrrolidin-1-yl)-1H-pyrazolo[4,3-c]quinoline-8-carboxamide] | < 100 | < 1 | 168
21 | Cn1ncc2c(N)nc3ccc(C(=O)N(Cc4ccccc4F)N4CCCC4=O)cc3c21 [Example 56, 4-amino-N-(2-fluorobenzyl)-1-methyl-N-(2-oxopyrrolidin-1-yl)-1H-pyrazolo[4,3-c]quinoline-8-carboxamide] | < 100 | < 1 | 195
22 | Cn1ncc2c(N)nc3cc(F)c(C(=O)N(Cc4ccc(C(F)(F)F)nc4)N4CCCC4=O)cc3c21 [Example 57, 4-amino-7-fluoro-1-methyl-N-(2-oxopyrrolidin-1-yl)-N-((6-(trifluoromethyl)pyridin-3-yl)methyl)-1H-pyrazolo[4,3-c]quinoline-8-carboxamide] | < 100 | 1 to 5 | 108
23 | CN1CCN(N(Cc2ccc(C(F)(F)F)cn2)C(=O)c2ccc3nc(N)c4cnn(C)c4c3c2)CC1 [Example 58, 4-amino-1-methyl-N-(4-methylpiperazin-1-yl)-N-((5-(trifluoromethyl)pyridin-2-yl)methyl)-1H-pyrazolo[4,3-c]quinoline-8-carboxamide] | 100 to 1000 | 1 to 5 | 126
24 | CN1CCN(N(Cc2ccc(C(F)(F)F)cn2)C(=O)c2cc3c(cc2F)nc(N)c2cnn(C)c23)CC1 [Example 59, 4-amino-7-fluoro-1-methyl-N-(4-methylpiperazin-1-yl)-N-((5-(trifluoromethyl)pyridin-2-yl)methyl)-1H-pyrazolo[4,3-c]quinoline-8-carboxamide] | < 100 | < 1 | 53
25 | Cn1ncc2c(N)nc3cc(F)c(C(=O)N(Cc4ccc(C(F)(F)F)nn4)N4CCCC4=O)cc3c21 [Example 60, 4-amino-7-fluoro-1-methyl-N-(2-oxopyrrolidin-1-yl)-N-((6-(trifluoromethyl)pyridazin-3-yl)methyl)-1H-pyrazolo[4,3-c]quinoline-8-carboxamide] | < 100 | 1 to 5 | 58
